# pIC50: −log10 of the molar value.
# Molecular target: T1, human T-type channel alpha-1H (CaV 3.2) (Homo sapiens, UniProt O95180)
# T1 construct: expressed in transfected cells; host or cells: HEK 293
# Test: Ca2+ Influx Assay (cell-based fluorescent, FDSS)
# Conditions: HEK 293 cells expressing human CaV 3.2
# Method: Inhibition of T-type calcium channel activity was determined by cell-based flu-orescent Ca^2+ influx assay, in which potassium ionophore was added to decrease resting membrane potential and extra-cellular high-K^+ stimulation was used to modulate the membrane potential of the cell. The changes in fluorescent signal were monitored by the cell imaging technology by Hamamatsu Photonics's Functional Drug Screening System (FDSS).
# HEK 293 cells expressing the human T-type channel alpha-1H (CaV 3.2) were maintained in DMEM supplemented with 10% heat-inactivated FBS, 100 units/ml Penicillin, 100 microg/ml Streptomycin, 150 microg/ml Zeocin, 300 microg/ml Geneticin. The cells were grown in a 5% CO2 humidified incubator at 37° C.
# • 1. Cells were harvested and seeded in a poly-D-lysine coated black-sided clear bottom 384-well plate at density of 10,000 cells/well at 24 hours prior to assay. • 2. Incubate at 37° C. in 5% CO2. Day Two: • 1. Wash each well with assay buffer (see below) and leave 20 RI using plate washer, ELx-405 Select CW (BIO-TEK). • 2. Add 20 μL of assay buffer containing 6 μM Fluo-4-AM (Molecular Probes) and 0.005% Pluronic F-127 to each well. • 3. Incubate the plate at 37° C. for 1 hour. • 4. Wash each well assay buffer (see below) and leave 20 μl using plate washer, ELx-405 Select CW (BIO-TEK). • 5. Add 10 μl of compound solution into each well by FDSS6000 and leave the plate for 4.5 min, and then add 10 μl of potassium ionophore solution. • 6. Add 20 μl of high-K^+ depolarizing solution (see below) and monitor the change of fluorescent signal.
# The IC50 values for compounds of the present invention were determined from 7-point dose-response studies. Curves were generated using the average of duplicate wells for each data point. Finally, the IC50 values are calculated with the best-fit dose curve determined by XLfit.
# T1 sequence (O95180 whole entry): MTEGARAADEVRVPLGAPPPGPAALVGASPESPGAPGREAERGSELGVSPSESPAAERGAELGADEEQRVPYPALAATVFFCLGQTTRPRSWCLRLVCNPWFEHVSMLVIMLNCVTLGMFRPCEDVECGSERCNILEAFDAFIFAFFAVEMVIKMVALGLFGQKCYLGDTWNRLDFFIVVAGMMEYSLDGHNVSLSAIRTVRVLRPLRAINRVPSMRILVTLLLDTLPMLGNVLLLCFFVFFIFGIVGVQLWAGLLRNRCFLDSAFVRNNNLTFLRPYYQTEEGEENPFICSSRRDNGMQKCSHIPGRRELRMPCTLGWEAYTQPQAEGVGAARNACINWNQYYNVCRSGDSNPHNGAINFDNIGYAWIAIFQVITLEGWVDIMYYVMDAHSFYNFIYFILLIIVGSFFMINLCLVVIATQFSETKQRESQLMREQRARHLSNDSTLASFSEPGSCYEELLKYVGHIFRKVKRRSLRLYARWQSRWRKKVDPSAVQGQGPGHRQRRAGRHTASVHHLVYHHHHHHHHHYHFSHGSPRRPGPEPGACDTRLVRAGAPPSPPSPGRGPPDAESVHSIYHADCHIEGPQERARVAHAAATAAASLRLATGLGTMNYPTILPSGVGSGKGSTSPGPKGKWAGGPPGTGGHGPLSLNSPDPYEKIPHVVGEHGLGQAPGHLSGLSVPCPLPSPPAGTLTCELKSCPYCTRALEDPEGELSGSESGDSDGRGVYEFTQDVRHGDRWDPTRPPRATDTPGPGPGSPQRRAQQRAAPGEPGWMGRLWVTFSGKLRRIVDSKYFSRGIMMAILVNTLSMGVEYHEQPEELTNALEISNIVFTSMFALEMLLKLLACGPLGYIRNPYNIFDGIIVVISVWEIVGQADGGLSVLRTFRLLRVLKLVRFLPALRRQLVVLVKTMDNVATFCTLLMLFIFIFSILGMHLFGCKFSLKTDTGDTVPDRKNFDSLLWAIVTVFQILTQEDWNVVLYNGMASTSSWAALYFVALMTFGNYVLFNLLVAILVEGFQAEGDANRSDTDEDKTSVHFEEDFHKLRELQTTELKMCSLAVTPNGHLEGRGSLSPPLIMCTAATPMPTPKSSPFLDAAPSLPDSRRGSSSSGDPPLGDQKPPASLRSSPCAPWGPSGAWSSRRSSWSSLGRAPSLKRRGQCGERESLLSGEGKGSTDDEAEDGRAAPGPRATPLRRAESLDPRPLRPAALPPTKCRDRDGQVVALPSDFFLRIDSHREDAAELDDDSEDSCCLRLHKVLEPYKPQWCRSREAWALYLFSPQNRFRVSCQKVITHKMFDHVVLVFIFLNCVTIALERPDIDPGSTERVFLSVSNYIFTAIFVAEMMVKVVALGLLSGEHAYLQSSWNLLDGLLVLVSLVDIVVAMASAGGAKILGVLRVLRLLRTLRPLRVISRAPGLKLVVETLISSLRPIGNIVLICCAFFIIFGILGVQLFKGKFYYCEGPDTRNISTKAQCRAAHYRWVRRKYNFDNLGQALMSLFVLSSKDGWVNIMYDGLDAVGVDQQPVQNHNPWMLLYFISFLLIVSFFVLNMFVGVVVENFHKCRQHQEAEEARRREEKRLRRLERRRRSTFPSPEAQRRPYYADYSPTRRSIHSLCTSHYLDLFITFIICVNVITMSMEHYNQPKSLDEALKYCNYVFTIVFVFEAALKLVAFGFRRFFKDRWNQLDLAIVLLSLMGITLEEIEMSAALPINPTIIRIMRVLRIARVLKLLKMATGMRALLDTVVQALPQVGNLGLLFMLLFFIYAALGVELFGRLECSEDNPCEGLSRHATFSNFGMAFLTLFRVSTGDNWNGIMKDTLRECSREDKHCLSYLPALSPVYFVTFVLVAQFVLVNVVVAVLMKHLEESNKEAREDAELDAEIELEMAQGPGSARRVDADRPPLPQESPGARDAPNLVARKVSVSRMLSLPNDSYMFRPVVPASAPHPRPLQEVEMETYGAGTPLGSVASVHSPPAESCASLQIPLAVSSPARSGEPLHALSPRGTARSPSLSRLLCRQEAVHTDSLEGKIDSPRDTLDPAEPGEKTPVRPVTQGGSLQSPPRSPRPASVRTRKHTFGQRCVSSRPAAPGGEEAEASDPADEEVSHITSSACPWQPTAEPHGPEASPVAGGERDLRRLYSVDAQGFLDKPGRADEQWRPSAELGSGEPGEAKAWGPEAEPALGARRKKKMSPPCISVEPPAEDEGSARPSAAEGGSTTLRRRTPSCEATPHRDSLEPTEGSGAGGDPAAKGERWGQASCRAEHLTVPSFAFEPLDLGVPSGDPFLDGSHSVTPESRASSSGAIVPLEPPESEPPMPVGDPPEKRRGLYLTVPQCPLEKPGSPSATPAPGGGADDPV
row,Compound,pIC50
1,"C[C@@H](NC(=O)[C@H]1C[C@@H]1c1c[nH]c2ccccc12)c1ccc(OCC(F)(F)F)cn1 (relative stereo) [Example 133, (1S*,2S*)-2-(1H-indol-3-yl)-N-((R)-1-(5-(2,2,2-trifluoroethoxy)pyridin-2-yl)ethyl)cyclopropanecarboxamide]",≥ 6.52
2,"C[C@@H](NC(=O)[C@@H]1C[C@H]1c1c[nH]c2ccccc12)c1ccc(OCC(F)(F)F)cn1 (relative stereo) [Example 134, (1R*,2R*)-2-(1H-indol-3-yl)-N-((R)-1-(5-(2,2,2-trifluoroethoxy)pyridin-2-yl)ethyl)cyclopropanecarboxamide]",≥ 6.52
3,"C[C@@H](NC(=O)[C@H]1C[C@@H]1c1ccc2cc[nH]c2c1)c1ccc(OCC(F)(F)F)cn1 (relative stereo) [Example 203, (1S*,2S*)-2-(1H-indol-6-yl)-N-((R)-1-(5-(2,2,2-trifluoroethoxy)pyridin-2-yl)ethyl)cyclopropanecarboxamide]",≥ 6.52
4,"C[C@@H](NC(=O)[C@@H]1C[C@H]1c1ccc2cc[nH]c2c1)c1ccc(OCC(F)(F)F)cn1 (relative stereo) [Example 204, (1R*,2R*)-2-(1H-indol-6-yl)-N-((R)-1-(5-(2,2,2-trifluoroethoxy)pyridin-2-yl)ethyl)cyclopropanecarboxamide]",≥ 6.52
5,"C[C@@H](NC(=O)[C@@H]1C[C@H]1c1ccc2ccccc2n1)c1cnc(OCC(F)(F)F)cn1 (relative stereo) [Example 222, (1R*,2R*)-2-(quinolin-2-yl)-N-((R)-1-(5-(2,2,2-trifluoroethoxy)pyrazin-2-yl)ethyl)cyclopropanecarboxamide]",≥ 6.52
6,"C[C@@H](NC(=O)[C@H]1C[C@@H]1c1cc2ccccc2[nH]1)c1ccc(OCC(F)(F)F)nc1 (relative stereo) [Example 223, (1S*,2S*)-2-(1H-indol-2-yl)-N-((R)-1-(6-(2,2,2-trifluoroethoxy)pyridin-3-yl)ethyl)cyclopropanecarboxamide]",≥ 6.52
7,"C[C@@H](NC(=O)[C@@H]1C[C@H]1c1cc2ccccc2[nH]1)c1ccc(OCC(F)(F)F)nc1 (relative stereo) [Example 224, (1R*,2R*)-2-(1H-indol-2-yl)-N-((R)-1-(6-(2,2,2-trifluoroethoxy)pyridin-3-yl)ethyl)cyclopropanecarboxamide]",≥ 6.52
8,"C[C@@H](NC(=O)[C@H]1C[C@@H]1c1cc2ccccc2[nH]1)c1cnc(OCC(F)(F)F)cn1 (relative stereo) [Example 225, (1S*,2S*)-2-(1H-indol-2-yl)-N-((R)-1-(5-(2,2,2-trifluoroethoxy)pyrazin-2-yl)ethyl)cyclopropanecarboxamide]",≥ 6.52
9,"C[C@@H](NC(=O)[C@@H]1C[C@H]1c1cc2ccccc2[nH]1)c1cnc(OCC(F)(F)F)cn1 (relative stereo) [Example 226, (1R*,2R*)-2-(1H-indol-2-yl)-N-((R)-1-(5-(2,2,2-trifluoroethoxy)pyrazin-2-yl)ethyl)cyclopropanecarboxamide]",≥ 6.52
10,"C[C@@H](NC(=O)[C@H]1C[C@@H]1c1ccc2cnn(C)c2c1)c1ccc(OCC(F)(F)F)cn1 (relative stereo) [Example 227, (1S*,2S*)-2-(1-methyl-1H-indazol-6-yl)-N-((R)-1-(5-(2,2,2-trifluoroethoxy)pyridin-2-yl)ethyl)cyclopropanecarboxamide]",≥ 6.52
11,"C[C@@H](NC(=O)[C@H]1C[C@@H]1c1ccc(OCc2ccccc2)cc1)c1ccc(OCC(F)(F)F)cn1 (relative stereo) [Example 237, (1S*,2S*)-2-(4-(benzyloxy)phenyl)-N-((R)-1-(5-(2,2,2-trifluoroethoxy)pyridin-2-yl)ethyl)cyclopropanecarboxamide]",≥ 6.52
12,"C[C@@H](NC(=O)[C@H]1C[C@@H]1c1ccc(F)cc1Cl)c1ccc(OCC(F)(F)F)cn1 (relative stereo) [Example 246, (1S*,2S*)-2-(2-chloro-4-fluorophenyl)-N-((R)-1-(5-(2,2,2-trifluoroethoxy)pyridin-2-yl)ethyl)cyclopropanecarboxamide]",≥ 6.52

# — patent US9101616B2, “Aryl substituted carboxamide derivatives as calcium or sodium channel blockers” (RaQualia Pharma Inc., priority 2009, dated 2015)
